According to US11045475B2, “Application of methyl 4-[9-(6-aminopuryl)]-2(s)-hydroxybutyrate in preparation of medicament for treating psoriasis and vitiligo” (SHANGHAI INSTITUTE OF MATERIA MEDICA, CHINESE ACADEMY OF …, priority 2016, dated 2021):

Tests used:
[1] = test system: experimental autoimmune encephalomyelitis (EAE); conditions: animal models, background statement; cited from earlier work
[2] = test system: psoriasis induced by imiquimod in mice; experiment: Imiquimod-induced psoriasis in mice, ointment treatment, PASI scoring and skin lesion photographs; assay type: in vivo, female balb/c mice; conditions: 62.5 mg ointment (0.2 g per 10 g) on dorsal skin every day, observed over 15 days, FIG. 1
Excerpt: Testing materials: the ointment base from Example 1; the methyl 4-[9-(6-aminopuryl)]-2(s)-hydroxybutyrate ointment from Example 2, and per 10 g of the ointment contains 0.2 g of methyl 4-[9-(6-aminopuryl)]-2(s)-hydroxybutyrate.
Modeling drug: Imiquimod Cream produced by SICHUAN MED-SHINE PHARMACEUTICAL CO., LTD.; SDA (State Drugs Administration) License No.: GUOYAOZHUNZI H20030128; Lot No.: 15060139.
Positive control drug: Calcipotriol Ointment produced by CHONGQING HUAPONT PHARM CO., LTD., SDA (State Drugs Administration) License No.: GUOYAOZHUNZI H20113541; Lot No.: 2015002.
Experimental animals: female balb/c mice with body weight of 18-22 g, provided by SHANGHAI SLAC LABORATORY ANIMAL CO., LTD. […]
(§1) Treatment: dorsal skin of the mice of the normal control group and model control group was applied with ointment base of 62.5 mg from Example 1 every day, and the dorsal skin of the mice of calcipotriol control group was applied with Calcipotriol Ointment of 62.5 mg every day, and the dorsal skin of the mice of ointment treatment group was applied with methyl 4-[9-(6-aminopuryl)]-2(s)-hydroxybutyrate ointment of 62.5 mg. […] Based on PASI score system, the erythema (FIG. 1A), scales (FIG. 1B) and skin thickening (FIG. 1C) of the dorsal skin were scored (0-4). […]

[3] = test system: T lymphocyte activation in spleen; experiment: Flow cytometry of naive and active T cells in spleen lymphocytes of imiquimod-induced psoriasis mice; assay type: in vivo, female balb/c mice; conditions: after 7 days of ointment treatment, FIG. 2C-2E
Excerpt: (§2) FIG. 2 illustrates the inhibition of spleen swelling and T lymphocyte activation in spleen induced by imiquimod with methyl 4-[9-(6-aminopuryl)]-2(s)-hydroxybutyrate in mice. Mice models are weighed (FIG. 2A) and euthanized on Day 7 of imiquimod-induced psoriasis modeling, and spleens of the mice were weighed to calculate spleen index (FIG. 2B); naive T cells (CD3^+CD4^+CD44^−CD62L^+) ratio (FIG. 2C, 2D), and active T cells (CD3^+CD4^+CD44^+CD62L^−) ratio (FIG. 2C, 2E) are detected. *P<0.05, ***P<0.001, n≥5. The groups in FIG. 2 are the normal control group, model control group and ointment treatment group. FIG. 2C is for CD3^+CD4^+ T cells, and FIGS. 2D and 2E show the ratio of CD3^+CD4^+ T cells in all spleen lymphocytes. […]
as §1

[4] = target: S-adenosyl-L-homocysteine hydrolase (SAHH) (Homo sapiens, UniProt P23526); conditions: background statement; cited from earlier work
Chain of S-adenosyl-L-homocysteine hydrolase (SAHH) (P23526 whole entry, species assumed): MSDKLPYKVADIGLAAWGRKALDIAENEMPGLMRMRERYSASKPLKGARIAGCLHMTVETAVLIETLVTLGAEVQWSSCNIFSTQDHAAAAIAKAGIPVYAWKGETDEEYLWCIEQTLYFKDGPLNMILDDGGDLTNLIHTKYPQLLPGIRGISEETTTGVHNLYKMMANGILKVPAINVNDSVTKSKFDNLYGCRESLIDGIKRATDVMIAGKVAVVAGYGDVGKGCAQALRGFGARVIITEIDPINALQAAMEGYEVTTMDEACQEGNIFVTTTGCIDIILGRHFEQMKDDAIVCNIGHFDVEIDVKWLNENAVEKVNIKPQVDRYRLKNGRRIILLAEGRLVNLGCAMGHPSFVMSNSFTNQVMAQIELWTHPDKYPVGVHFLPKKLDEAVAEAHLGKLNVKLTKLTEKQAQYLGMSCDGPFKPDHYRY

spleen swelling = experiment: Spleen weight / spleen index in imiquimod-induced psoriasis mice; assay type: in vivo, female balb/c mice; conditions: after 7 days of ointment treatment, FIG. 2A, 2B
Excerpt: as §2, §1

cells = conditions: background statement; cited from earlier work
[5] = test system: systemic lupus erythematosus (SLE); conditions: animal models, background statement; cited from earlier work
IL-17 = IL-17 ELISA of damaged skin extract of imiquimod-induced psoriasis mice; assay type: in vivo, female balb/c mice; conditions: after 7 days of ointment treatment, FIG. 3
Excerpt: FIG. 3 illustrates the inhibition of IL-17 level in psoriatic lesions induced by imiquimod with methyl 4-[9-(6-aminopuryl)]-2(s)-hydroxybutyrate in mice. Skin of the lesions is taken on Day 7 of imiquimod-induced psoriasis modeling, and its IL-17 content is detected by ELISA. *P<0.05, n≥5. The groups in FIG. 3 are the normal control group, model control group and ointment treatment group.
Construction of animal models with psoriasis: normal control group, model control group, calcipotriol ointment control group, ointment treatment group, n=10/group. […]
as §1
The mice were weighed when the psoriasis was more serious after 7 days of treatment; the mice were sacrificed, and the spleens of each group were removed and weighed. […] Inflammatory factor (IL-17) of the extract was detected by ELISA (FIG. 3).

## COC(=O)C(O)CCn1cnc2c(N)ncnc21 (centres unmarked) [methyl 4-[9-(6-aminopuryl)]-2(s)-hydroxybutyrate]
[1]
  therapeutic effect on EAE: good therapeutic effect
[2]
  PASI scores of erythema, scales, skin thickening and total score of skin lesion severity: relieved psoriasis induced by imiquimod in mice effectively
[3]
  T lymphocyte activation (ratio of naive and active T cells in spleen lymphocytes): inhibited T lymphocyte activation in mice with psoriasis induced by imiquimod
[4]
  type of SAHH inhibition: type III inhibitor of SAHH
Spleen swelling
  spleen swelling (spleen index): improved spleen swelling in mice with psoriasis induced by imiquimod significantly
cells
  cytotoxicity: low cytotoxicity
[5]
  therapeutic effect on SLE: good therapeutic effect
IL-17
  level of IL-17 in the damaged skin: inhibited the level of IL-17 in the damaged skin
